Test results from patent US20120214822A1 (ASTRAZENECA AB, priority 2007, published 2012).

Target: human active recombinant p38α-6His tagged (Homo sapiens, UniProt Q16539)
Assay: P38 Alpha Enzyme Assay (AlphaScreen, biotinylated-ATF2 substrate);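 also: 0.5 nM final p38α, reaction started with ATP and run 45 min at 37 °C, phospho-ATF2 read by antibody-based AlphaScreen, background wells quenched with EDTA before ATP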
Format: biochemical
Conditions: p38 alpha enzyme inhibition; means of replicate determinations; 4 h pre-incubation at 37° C.; SD of assay 0.2-0.3 log units

Sequence of human active recombinant p38α-6His tagged (Q16539 whole entry): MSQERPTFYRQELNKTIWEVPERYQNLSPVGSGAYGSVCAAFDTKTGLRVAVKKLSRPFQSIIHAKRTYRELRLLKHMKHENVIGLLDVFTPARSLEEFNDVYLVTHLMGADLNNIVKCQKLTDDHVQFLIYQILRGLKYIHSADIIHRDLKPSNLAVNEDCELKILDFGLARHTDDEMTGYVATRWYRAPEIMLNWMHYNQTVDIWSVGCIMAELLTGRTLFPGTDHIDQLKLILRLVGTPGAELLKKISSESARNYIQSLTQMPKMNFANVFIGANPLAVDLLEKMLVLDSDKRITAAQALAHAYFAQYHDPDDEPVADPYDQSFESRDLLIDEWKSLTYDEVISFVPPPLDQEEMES

pIC50 | SMILES
8.5 | Cc1cccc(C2CCCN2c2nccn(-c3cc(C(=O)NC4CC4)ccc3C)c2=O)c1 (stereo not shown) [Example 96, N-Cyclopropyl-4-methyl-3-[3-[2-(3-methylphenyl)-1-pyrrolidinyl]-2-oxo-1(2H)-pyrazinyl]-benzamide]
7.7 | Cc1ccc(C(=O)NC2CC2)cc1-n1ccnc(NCc2ccccc2Cl)c1=O [Example 129, 3-[3-[[(2-Chlorophenyl)methyl]amino]-2-oxo-1(2H)-pyrazinyl]-N-cyclopropyl-4-methyl-benzamide]
8.7 | COc1ccccc1C1CCCN1c1nccn(-c2cc(C(=O)NC3CC3)ccc2C)c1=O (stereo not shown) [Example 97, N-Cyclopropyl-3-[3-[2-(2-methoxyphenyl)-1-pyrrolidinyl]-2-oxo-1(2H)-pyrazinyl]-4-methyl-benzamide]
10.4 | CCNC[C@@H](O)COc1ccccc1C(C)(C)Nc1nccn(-c2cc(C(=O)NC3CC3)cc(F)c2C)c1=O [Example 308, N-Cyclopropyl-3-[3-{[1-(2-{[(2R)-3-(ethylamino)-2-hydroxypropyl]oxy}phenyl)-1-methylethyl]amino}-2-oxopyrazin-1(2H)-yl]-5-fluoro-4-methylbenzamide]
9 | Cc1ccc(C(=O)NC2CC2)cc1-n1ccnc(N[C@@H](c2ccccc2)[C@@H](C)CN2CCC(C(F)(F)F)CC2)c1=O [Example 177, N-Cyclopropyl-4-methyl-3-[3-[[(1R,2S)-2-methyl-1-phenyl-3-[4-(trifluoromethyl)-1-piperidinyl]propyl]amino]-2-oxo-1(2H)-pyrazinyl]-benzamide]
7.1 | Cc1ccc(C(=O)NC2CC2)cc1-n1ccnc(NCc2cc(C(F)(F)F)cc(C(F)(F)F)c2)c1=O [Example 99, 3-[3-[[[3,5-Bis(trifluoromethyl)phenyl]methyl]amino]-2-oxo-1(2H)-pyrazinyl]-N-cyclopropyl-4-methyl-benzamide]
7.9 | Cc1ccc(C(=O)NC2CC2)cc1-n1ccnc(N[C@H](CO)c2ccccc2)c1=O [Example 80, N-Cyclopropyl-3-[3-[[(1S)-2-hydroxy-1-phenylethyl]amino]-2-oxo-1(2H)-pyrazinyl]-4-methyl-benzamide]
6.8 | Cc1ccc(C(=O)NC2CC2)cc1-n1ccnc(Sc2ccccc2)c1=O [Example 117, N-Cyclopropyl-4-methyl-3-[2-oxo-3-(phenylthio)-1(2H)-pyrazinyl]-benzamide]
8.9 | Cc1ccc(C(=O)NC2CC2)cc1-n1ccnc(NC(C)(C)c2ccccc2OC(C)CN2CCN(C)CC2)c1=O (stereo not shown) [Example 209, N-Cyclopropyl-4-methyl-3-[3-[[1-methyl-1-[2-[1-methyl-2-(4-methyl-1-piperazinyl)ethoxy]phenyl]ethyl]amino]-2-oxo-1(2H)-pyrazinyl]-benzamide]
6.4 | Cc1ccc(C(=O)NC2CC2)cc1-n1ccnc(NCc2nc3ccccc3[nH]2)c1=O [Example 27, 3-[3-[(1H-Benzimidazol-2-ylmethyl)amino]-2-oxo-1(2H)-pyrazinyl]-N-cyclopropyl-4-methyl-benzamide]
7.5 | CONC(=O)c1ccc(C)c(-n2ccnc(N3CCCC3)c2=O)c1 [Example 132, N-Methoxy-4-methyl-3-[2-oxo-3-(1-pyrrolidinyl)-1(2H)-pyrazinyl]-benzamide]
10.1 | Cc1c(F)cc(C(=O)NC2CC2)cc1-n1ccnc(NC2(c3ccccc3OCCNC(C)C)CC2)c1=O [Example 264, N-Cyclopropyl-3-fluoro-4-methyl-5-[3-[[1-[2-[2-[(1-methylethyl)amino]ethoxy]phenyl]cyclopropyl]amino]-2-oxo-1(2H)-pyrazinyl]-benzamide]
10.1 | Cc1ccc(C(=O)NC2CC2)cc1-n1ccnc(NC2(c3ccccc3OCCN)CC2)c1=O [Example 251, 3-[3-[[1-[2-(2-aminoethoxy)phenyl]cyclopropyl]amino]-2-oxo-1(2H)-pyrazinyl]-N-cyclopropyl-4-methyl-benzamide]
